# Patent publication US20080004253A1, “Thiazolopyrimidine modulators of TRPV1” (priority 2006, published 2008)
# How the values were obtained:
# human TRPV1 = molecular target: T1, human TRPV1 (Homo sapiens, UniProt Q8NER1); test: Functional assay: block of capsaicin-induced Ca2+ influx, human assay (hTRPV1/HEK293, FLIPR); format: cell-based; details: hTRPV1/HEK293 cells, 150 nM capsaicin challenge, Fluo-3 fluorescence; mean; > value = solubility limit in assay medium
# T1 construct: expressed in transfected cells; host or cells: HEK293 (hTRPV1/HEK293), zeocin selection
# T1 sequence (Q8NER1 whole entry): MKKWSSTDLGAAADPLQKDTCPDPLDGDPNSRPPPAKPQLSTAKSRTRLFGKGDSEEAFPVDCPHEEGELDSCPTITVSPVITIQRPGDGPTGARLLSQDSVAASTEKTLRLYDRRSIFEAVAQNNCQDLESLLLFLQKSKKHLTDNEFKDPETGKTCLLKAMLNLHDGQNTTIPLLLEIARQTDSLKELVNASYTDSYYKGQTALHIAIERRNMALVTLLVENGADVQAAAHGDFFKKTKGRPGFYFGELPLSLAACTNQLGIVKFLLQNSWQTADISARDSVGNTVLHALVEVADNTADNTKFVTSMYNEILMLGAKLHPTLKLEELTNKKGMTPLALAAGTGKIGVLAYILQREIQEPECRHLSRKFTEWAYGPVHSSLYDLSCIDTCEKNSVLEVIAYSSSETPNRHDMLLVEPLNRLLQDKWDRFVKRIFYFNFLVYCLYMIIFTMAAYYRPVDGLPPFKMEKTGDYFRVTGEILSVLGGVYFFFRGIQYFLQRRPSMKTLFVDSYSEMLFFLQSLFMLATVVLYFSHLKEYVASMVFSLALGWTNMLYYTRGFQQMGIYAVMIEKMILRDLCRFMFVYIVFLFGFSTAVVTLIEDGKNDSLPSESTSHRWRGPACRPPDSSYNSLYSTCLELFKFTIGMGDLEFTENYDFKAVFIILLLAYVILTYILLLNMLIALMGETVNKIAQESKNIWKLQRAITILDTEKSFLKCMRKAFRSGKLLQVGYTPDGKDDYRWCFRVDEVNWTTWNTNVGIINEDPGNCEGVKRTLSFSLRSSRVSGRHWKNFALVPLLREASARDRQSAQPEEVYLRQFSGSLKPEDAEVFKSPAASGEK
# Procedure: (§1) Functional assay: block of capsaicin-induced Ca^2+ influx
# (§2) HEK293 cells were transfected with human TRPV1 cloned in pcDNA3.1zeo(+) using the Effectene non-liposomal lipid based transfection kit (Qiagen) (hTRPV1/HEK293). hTRPV1/HEK293 cells were routinely grown as monolayers under selection in zeocin (200 μg/mL; Invitrogen) in Dulbecco's Modified Eagle Medium (DMEM, Gibco BRL) supplemented with 10% fetal bovine serum, and penicillin/streptomycin (50 units/mL) in 5% CO2 at 37° C. Cells were passaged frequently, every 3-5 days, to avoid overgrowth, depletion of essential medium components, or acidic medium exposure. Cells were passaged using a brief wash in 0.05% trypsin with 1 mM EDTA, followed by dissociation in divalent-free phosphate-buffered saline (Hyclone #SH30028.02). […] The assay buffer was composed of 130 mM NaCl, 2 mM KCl, 2 mM MgCl2, 10 mM HEPES, 5 mM glucose, and either 2 mM or 20 μM CaCl2. On the day of the experiment, the culture medium was replaced with 2 mM calcium assay buffer using an automated plate washer (ELx405; Biotek, VT). […] After loading the cells, the dye solution was replaced with 50 μL/well of 20 μM calcium assay buffer using the ELx405 plate washer. Test compounds (50 μL/well) were added to the plate and incubated for 30 min. […] The IC50 values were determined. […] The contents of the wells were mixed 3 times (40 μL mix volume) immediately after the additions were made. Concentration-dependence of block was determined by exposing each well of cells in duplicate rows of a 96-well plate to a serial dilution of test compound. The concentration series usually started at 10 μM with a three-fold serial decrement in concentration. The magnitude of the capsaicin response was determined by measuring the change in fluo3 fluorescence before and 100 seconds after the addition of the agonist. Data were analyzed using a non-linear regression program (Origin; OriginLab, MA).
# (§3) IC50 values shown are the average (mean) of the results obtained. […] Compounds were tested in either the free base or trifluoroacetic acid salt form.
# rat TRPV1 = molecular target: T2, rat TRPV1 (Rattus norvegicus, UniProt O35433); test: Functional assay: block of capsaicin-induced Ca2+ influx, rat assay (rTRPV1/HEK293, FLIPR); format: cell-based; details: rTRPV1/HEK293 cells, capsaicin challenge, Fluo-3 fluorescence; mean; > value = solubility limit in assay medium
# T2 construct: expressed in transfected cells; host or cells: HEK293 (rTRPV1/HEK293), geneticin selection
# T2 sequence (O35433 whole entry): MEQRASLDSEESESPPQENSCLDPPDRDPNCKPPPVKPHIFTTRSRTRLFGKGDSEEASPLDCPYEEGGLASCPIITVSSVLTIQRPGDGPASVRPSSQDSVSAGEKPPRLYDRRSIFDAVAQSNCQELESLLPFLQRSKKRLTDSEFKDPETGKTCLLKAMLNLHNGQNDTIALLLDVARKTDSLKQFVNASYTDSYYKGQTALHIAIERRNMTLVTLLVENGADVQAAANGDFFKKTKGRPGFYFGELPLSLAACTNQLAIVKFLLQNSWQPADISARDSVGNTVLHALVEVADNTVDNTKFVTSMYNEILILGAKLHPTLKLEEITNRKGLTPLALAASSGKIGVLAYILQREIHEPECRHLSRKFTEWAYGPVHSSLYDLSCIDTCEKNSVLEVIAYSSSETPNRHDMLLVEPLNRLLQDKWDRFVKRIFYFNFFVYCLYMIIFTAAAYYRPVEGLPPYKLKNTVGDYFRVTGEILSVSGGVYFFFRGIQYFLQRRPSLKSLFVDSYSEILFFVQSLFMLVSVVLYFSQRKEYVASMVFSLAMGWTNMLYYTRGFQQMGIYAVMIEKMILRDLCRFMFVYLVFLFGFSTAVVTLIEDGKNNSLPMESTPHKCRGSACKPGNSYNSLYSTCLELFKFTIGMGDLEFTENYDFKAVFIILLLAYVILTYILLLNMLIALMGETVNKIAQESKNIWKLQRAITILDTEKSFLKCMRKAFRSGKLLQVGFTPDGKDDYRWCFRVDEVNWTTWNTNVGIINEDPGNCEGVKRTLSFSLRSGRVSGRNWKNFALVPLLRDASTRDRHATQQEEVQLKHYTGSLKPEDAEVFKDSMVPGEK
# Procedure: as §1, §2
# This assay was performed similarly to the human assay described above, but using HEK293 cells transfected with rat TRPV1 (rTRPV1/HEK293).
# as §3
IC50 (human TRPV1) [µM],IC50 (rat TRPV1) [µM],Structure (SMILES)
1.54,0.414,"OCC1CN(c2nc(Nc3ccc(C(F)(F)F)c(Cl)c3)c3nc(Nc4c(Cl)cccc4Cl)sc3n2)CCO1 (racemic) [Example 155, (racemic)-{4-[7-(3-Chloro-4-trifluoromethyl-phenylamino)-2-(2,6-dichloro-phenylamino)-thiazolo[5,4-d]pyrimidin-5-yl]-morpholin-2-yl}-methanol]"
0.081,0.039,"Cc1cccc(C)c1Nc1nc2c(Nc3ccc(OC(F)(F)F)cc3)ncnc2s1 [Example 28, N^2-(2,6-Dimethyl-phenyl)-N^7-(4-trifluoromethoxy-phenyl)-thiazolo[5,4-d]pyrimidine-2,7-diamine]"
> 6.67,3.19,"FC(F)(F)c1ccc(Nc2ncnc3sc(NC4CCCCC4)nc23)cc1 [Example 232, N^2-Cyclohexyl-N^7-[4-(trifluoromethyl)phenyl][1,3]thiazolo[5,4-d]pyrimidine-2,7-diamine]"
4.37,1.01,"Cc1nc(NC2CCC(C(C)(C)C)CC2)c2nc(Nc3c(C)cccc3C)sc2n1 (mixture of isomers) [Example 249, N^7-(4-tert-Butyl-cyclohexyl)-N^2-(2,6-dimethyl-phenyl)-5-methyl-thiazolo[5,4-d]pyrimidine-2,7-diamine]"
> 20,7.38,"Cc1nc(Nc2ccc(NS(C)(=O)=O)cc2)c2nc(Nc3c(C)cccc3C)sc2n1 [Example 174, N-{4-[2-(2,6-Dimethyl-phenylamino)-5-methyl-thiazolo[5,4-d]pyrimidin-7-ylamino]-phenyl}-methanesulfonamide]"
> 6.67,> 6.67,"Oc1ccc(Nc2ncnc3sc(Nc4c(Cl)cccc4Cl)nc23)cc1O [Example 227, 4-({2-[(2,6-Dichlorophenyl)amino][1,3]thiazolo[5,4-d]pyrimidin-7-yl}amino)benzene-1,2-diol]"
4.98,0.236,"Cc1cccc(C)c1Nc1nc2c(Nc3cccc(C(F)(F)F)c3)ncnc2s1 [Example 42, N^2-(2,6-Dimethyl-phenyl)-N^7-(3-trifluoromethyl-phenyl)-thiazolo[5,4-d]pyrimidine-2,7-diamine]"
0.202,0.078,"O=S(=O)(c1ccc(Nc2ncnc3sc(Nc4c(Cl)cccc4Cl)nc23)cc1)N1CCNCC1 [Example 134, N^2-(2,6-Dichloro-phenyl)-N^7-[4-(piperazine-1-sulfonyl)-phenyl]-thiazolo[5,4-d]pyrimidine-2,7-diamine]"
> 6.67,> 6.67,"Cc1cccc(C)c1Nc1nc2c(NCc3ccc(Cl)c(Cl)c3)ncnc2s1 [Example 39, N^7-(3,4-Dichloro-benzyl)-N^2-(2,6-dimethyl-phenyl)-thiazolo[5,4-d]pyrimidine-2,7-diamine]"
0.017,0.006,"FC(F)(F)c1ccc(Nc2nc(NCCCN3CCOCC3)nc3sc(Nc4c(Cl)cccc4Cl)nc23)cc1 [Example 100, N^2-(2,6-Dichloro-phenyl)-N^5-(3-morpholin-4-yl-propyl)-N^7-(4-trifluoromethyl-phenyl)-thiazolo[5,4-d]pyrimidine-2,5,7-triamine]"
0.014,0.001,"CC(C)(C)c1ccc(Nc2ncnc3sc(Nc4c(Cl)cccc4Cl)nc23)cc1 [Example 3, N^7-(4-tert-Butyl-phenyl)-N^2-(2,6-dichloro-phenyl)-thiazolo[5,4-d]pyrimidine-2,7-diamine]"
0.067,0.016,"Cc1cccc(C)c1Nc1nc2c(Nc3ccc(SC(F)(F)F)cc3)ncnc2s1 [Example 40, N^2-(2,6-Dimethyl-phenyl)-N^7-(4-trifluoromethylsulfanyl-phenyl)-thiazolo[5,4-d]pyrimidine-2,7-diamine]"
0.208,0.055,"Cc1nc(Nc2ccc(C(F)(F)F)nc2)c2nc(Nc3c(-c4ccccc4)noc3C)sc2n1 [Example 26, 5-Methyl-N^2-(5-methyl-3-phenyl-isoxazol-4-yl)-N^7-(6-trifluoromethyl-pyridin-3-yl)-thiazolo[5,4-d]pyrimidine-2,7-diamine]"
0.024,0.017,"CC1CCCN1c1nc(Nc2ccc(C(F)(F)F)cc2)c2nc(Nc3c(Cl)cccc3Cl)sc2n1 (racemic) [Example 105, (racemic)-N^2-(2,6-Dichloro-phenyl)-5-(2-methyl-pyrrolidin-1-yl)-N^7-(4-trifluoromethyl-phenyl)-thiazolo[5,4-d]pyrimidine-2,7-diamine]"
0.044,0.004,"Cc1cccc(C)c1Nc1nc2c(Nc3ccc(S(C)(=O)=O)cc3)ncnc2s1 [Example 115, N^2-(2,6-Dimethyl-phenyl)-N^7-(4-methanesulfonyl-phenyl)-thiazolo[5,4-d]pyrimidine-2,7-diamine]"
0.225,0.083,"FC(F)(F)c1ccc(Nc2nc(-c3ccccc3)nc3sc(Nc4c(Cl)cccc4Cl)nc23)cc1 [Example 70, N^2-(2,6-Dichloro-phenyl)-5-phenyl-N^7-(4-trifluoromethyl-phenyl)-thiazolo[5,4-d]pyrimidine-2,7-diamine]"
0.185,0.154,"CC(C)N1CCN(c2nc(Nc3ccc(C(F)(F)F)cc3)c3nc(Nc4c(Cl)cccc4Cl)sc3n2)CC1 [Example 69, N^2-(2,6-Dichloro-phenyl)-5-(4-isopropyl-piperazin-1-yl)-N^7-(4-trifluoromethyl-phenyl)-thiazolo[5,4-d]pyrimidine-2,7-diamine]"
14.7,3.62,"Cc1cccc(C)c1Nc1nc2c(Nc3ccc(S(N)(=O)=O)cc3)ncnc2s1 [Example 44, 4-[2-(2,6-Dimethyl-phenylamino)-thiazolo[5,4-d]pyrimidin-7-ylamino]-benzenesulfonamide]"
0.035,0.019,"Cc1nc(Nc2ccc(C(F)(F)F)c(Cl)c2)c2nc(Nc3c(C)cccc3C)sc2n1 [Example 247, N^7-(3-Chloro-4-trifluoromethyl-phenyl)-N^2-(2,6-dimethyl-phenyl)-5-methyl-thiazolo[5,4-d]pyrimidine-2,7-diamine]"
0.04,0.033,"Cc1cccc(C)c1Nc1nc2c(Nc3ccc(C#N)cc3)ncnc2s1 [Example 31, 4-[2-(2,6-Dimethyl-phenylamino)-thiazolo[5,4-d]pyrimidin-7-ylamino]-benzonitrile]"
1.32,1.82,"CN(C)CCN(C)c1nc(Nc2ccc(C(F)(F)F)cc2)c2nc(Nc3c(Cl)cccc3Cl)sc2n1 [Example 182, N^2-(2,6-Dichloro-phenyl)-N^5-(2-dimethhylamino-ethyl)-methyl-N^7-(4-trifluoromethyl-phenyl)-thiazolo[5,4-d]pyrimidine-2,5,7-triamine]"
3.78,2.29,"Cc1cccc(C)c1Nc1nc2c(Nc3ccc(N(C)S(C)(=O)=O)cc3)ncnc2s1 [Example 161, N-{4-[2-(2,6-Dimethyl-phenylamino)-thiazolo[5,4-d]pyrimidin-7-ylamino]-phenyl}-N-methyl-methanesulfonamide]"
0.036,0.056,"Cc1cccc(C)c1Nc1nc2c(Nc3ccc(SC(C)C)cc3)ncnc2s1 [Example 112, N^2-(2,6-Dimethyl-phenyl)-NT-(4-isopropylsulfanyl-phenyl)-thiazolo[5,4-d]pyrimidine-2,7-diamine]"
0.025,0.026,"Cc1nc(Nc2ccc(SC(C)C)cc2)c2nc(Nc3c(C)cccc3C)sc2n1 [Example 106, N^2-(2,6-Dimethyl-phenyl)-N^7-(4-isopropylsulfanyl-phenyl)-5-methyl-thiazolo[5,4-d]pyrimidine-2,7-diamine]"
0.031,0.01,"Cc1ccc(Nc2ncnc3sc(Nc4c(C)cccc4C)nc23)cc1 [Example 35, N^2-(2,6-Dimethyl-phenyl)-N^7-p-tolyl-thiazolo[5,4-d]pyrimidine-2,7-diamine]"
0.29,0.11,"CC(C)(O)CNc1nc(Nc2ccc(C(F)(F)F)cc2)c2nc(Nc3c(Cl)cccc3Cl)sc2n1 [Example 251, 1-[2-(2,6-Dichloro-phenylamino)-7-(4-trifluoromethyl-phenylamino)-thiazolo[5,4-d]pyrimidin-5-ylamino]-2-methyl-propan-2-ol]"
0.005,0.001,"Cc1nc(Nc2ccc(C(C)(C)C)cc2)c2nc(Nc3c(Cl)cccc3Cl)sc2n1 [Example 7, N^7-(4-tert-Butyl-phenyl)-N^2-(2,6-dichloro-phenyl)-5-methyl-thiazolo[5,4-d]pyrimidine-2,7-diamine]"
